# Reference: ChEMBL document CHEMBL3862010, “N-Arylsulfonyl-α-amino carboxamides are potent and selective inhibitors of the chemokine receptor CCR10 that show efficacy in the murine DNFB model of contact hypersensitivity” (Bioorg Med Chem Lett, 2016)
# What was measured:
# [1] = biological target: C-C chemokine receptor type 2 (Homo sapiens, UniProt P41597); assay: Antagonist activity at human CCR2 assessed as inhibition of MCP1-induced calcium flux; type: functional
# [2] = biological target: C-X-C chemokine receptor type 3 (Homo sapiens, UniProt P49682); assay: Antagonist activity at human CXCR3 assessed as inhibition of IP10-induced calcium flux; type: functional
# [3] = biological target: T1, C-C chemokine receptor type 10 (Homo sapiens, UniProt P46092); assay: Antagonist activity at human CCR10 expressed in CHOK1 cells coexpressing aequorin/Galphaq assessed as inhibition of CCL27-dependent calcium flux in presence of coelenterazine H by FLIPR assay; type: functional, cell-based, CHO-K1
# T1 sequence (P46092 whole entry): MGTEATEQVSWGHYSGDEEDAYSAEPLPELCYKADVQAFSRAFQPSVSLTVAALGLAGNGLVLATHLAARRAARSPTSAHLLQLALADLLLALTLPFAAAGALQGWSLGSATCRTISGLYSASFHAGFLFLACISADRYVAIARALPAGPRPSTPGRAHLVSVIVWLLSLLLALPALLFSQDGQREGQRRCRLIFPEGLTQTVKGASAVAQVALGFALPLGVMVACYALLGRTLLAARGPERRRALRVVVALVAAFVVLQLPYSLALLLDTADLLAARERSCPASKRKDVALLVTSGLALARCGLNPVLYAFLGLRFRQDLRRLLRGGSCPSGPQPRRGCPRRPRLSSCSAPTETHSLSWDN
# [4] = biological target: C-C chemokine receptor type 1 (Homo sapiens, UniProt P32246); assay: Antagonist activity at human CCR1 assessed as inhibition of MIP1alpha-induced calcium flux; type: functional
# [5] = Half life in mouse liver microsomes; type: ADME
# [6] = biological target: C-C chemokine receptor type 5 (Homo sapiens, UniProt P51681); assay: Antagonist activity at human CCR5 assessed as inhibition of RANTES-induced calcium flux; type: functional
# [7] = biological target: C-X-C chemokine receptor type 2 (Homo sapiens, UniProt P25025); assay: Antagonist activity at human CXCR2 assessed as inhibition of GROalpha-induced calcium flux; type: functional
# [8] = biological target: T1, C-C chemokine receptor type 10; assay: Antagonist activity at human CCR10 expressed in CHOK1 cells coexpressing aequorin/Galphaq assessed as inhibition of human CCL28-dependent calcium flux by chemiluminescence assay; type: functional, cell-based, CHO-K1
# [9] = biological target: T1, C-C chemokine receptor type 10; assay: Antagonist activity at human CCR10 expressed in HEK cell membranes assessed as inhibition of human CCL27-dependent europium-labeled GTP binding; parameters: species or system HEK293
# [10] = biological target: T2, C-C chemokine receptor type 10 (Mus musculus, UniProt Q9JL21); assay: Antagonist activity at mouse CCR10 expressed in CHOK1 cells coexpressing aequorin/Galphaq assessed as inhibition of CCL27-dependent calcium flux in presence of coelenterazine H by chemiluminescence assay; type: functional, cell-based, CHO-K1
# T2 sequence (Q9JL21 whole entry): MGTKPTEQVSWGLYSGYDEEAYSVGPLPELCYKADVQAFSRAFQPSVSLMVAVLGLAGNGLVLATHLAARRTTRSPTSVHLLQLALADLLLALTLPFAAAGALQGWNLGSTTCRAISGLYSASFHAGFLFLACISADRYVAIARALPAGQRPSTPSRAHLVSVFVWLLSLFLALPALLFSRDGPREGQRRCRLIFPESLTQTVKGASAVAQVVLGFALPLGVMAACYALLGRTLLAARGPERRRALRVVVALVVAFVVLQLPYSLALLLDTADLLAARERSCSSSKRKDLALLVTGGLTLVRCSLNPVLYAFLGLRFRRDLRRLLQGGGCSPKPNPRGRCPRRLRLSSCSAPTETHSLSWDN
# [11] = biological target: T1, C-C chemokine receptor type 10; assay: Antagonist activity at human CCR10 expressed in HEK cells assessed as inhibition of human CCL27-dependent cAMP production; type: functional, cell-based, HEK293
# Histamine H4 receptor = Histamine H4 receptor (Homo sapiens, UniProt Q9H3N8); assay: Antagonist activity at human histamine H4 receptor assessed as inhibition of histamine-induced calcium flux; type: functional
# [12] = Clearance in mouse liver microsomes relative to hepatic blood flow; type: ADME; details: read-out: CLH
# [13] = biological target: T1, C-C chemokine receptor type 10; assay: Antagonist activity at human CCR10 expressed in CHOK1 cells coexpressing aequorin/Galphaq assessed as inhibition of human CCL27-dependent calcium flux in presence of coelenterazine H by chemiluminescence assay; type: functional, cell-based, CHO-K1; details: read-out: pIC50 (converted)
# [14] = biological target: T1, C-C chemokine receptor type 10; assay: Antagonist activity at human CCR10 expressed in CHOK1 cells coexpressing aequorin/Galphaq assessed as inhibition of human CCL28-dependent calcium flux by FLIPR assay; type: functional, cell-based, CHO-K1
# [15] = biological target: D(3) dopamine receptor (Homo sapiens) (UniProt P35462); assay: Binding affinity to human dopamine D3 receptor at 10 uM relative to control
# Homo sapiens [16] = species on record: Homo sapiens; assay: Binding affinity to human dopamine D4.2 receptor at 10 uM relative to control
# Rattus norvegicus [17] = species on record: Rattus norvegicus; assay: Binding affinity to rat muscarinic acetylcholine receptor at 10 uM relative to control
# [18] = biological target: C-C chemokine receptor type 6 (Homo sapiens, UniProt P51684); assay: Antagonist activity at human CCR6 assessed as inhibition of CCL20/MIP-3alpha-induced calcium flux; type: functional
# [19] = biological target: 5-hydroxytryptamine receptor 3A (Homo sapiens) (UniProt P46098); assay: Binding affinity to human 5-HT3 receptor at 10 uM relative to control
# [20] = biological target: T1, C-C chemokine receptor type 10; assay: Reversible inhibition of human CCL27-Fc binding to CCR10 expressed in HEK cell membranes by immunochemical binding assay; parameters: species or system HEK293
# [21] = biological target: Adrenergic receptor alpha-1 (Rattus norvegicus) (UniProt P15823+P23944+P43140); assay: Binding affinity to rat adrenergic alpha1 receptor at 10 uM relative to control
# Rattus norvegicus [22] = species on record: Rattus norvegicus; assay: Binding affinity to rat 5-HT1 receptor at 10 uM relative to control
# [23] = biological target: Histamine H1 receptor (Homo sapiens) (UniProt P35367); assay: Binding affinity to human histamine H1 receptor at 10 uM relative to control
# [24] = biological target: Histamine H2 receptor (Homo sapiens) (UniProt P25021); assay: Binding affinity to human histamine H2 receptor at 10 uM relative to control
# [25] = biological target: D(2) dopamine receptor (Homo sapiens) (UniProt P14416); assay: Binding affinity to human dopamine D2L receptor at 10 uM relative to control
# [26] = biological target: T1, C-C chemokine receptor type 10; assay: Displacement of human CCL27-Fc from CCR10 expressed in HEK cell membranes by immunochemical binding analysis; parameters: species or system HEK293
# [27] = biological target: 5-hydroxytryptamine receptor 4 (Cavia porcellus) (UniProt O70528); assay: Binding affinity to guinea pig 5-HT4 receptor at 10 uM relative to control
# [28] = biological target: B2 bradykinin receptor (Homo sapiens) (UniProt P30411); assay: Binding affinity to human B2 bradykinin receptor at 10 uM relative to control
# [29] = biological target: Adrenergic receptor beta (Rattus norvegicus) (UniProt P18090+P10608+P26255); assay: Binding affinity to rat adrenergic beta receptor at 10 uM relative to control
# [30] = biological target: Calcitonin gene-related peptide type 1 receptor (Homo sapiens) (UniProt Q16602); assay: Binding affinity to human CGRP1 receptor at 10 uM relative to control
# Homo sapiens [31] = species on record: Homo sapiens; assay: Binding affinity to human nicotinic acetylcholine receptor at 10 uM relative to control
# [32] = biological target: Type-1 angiotensin II receptor (Homo sapiens) (UniProt P30556); assay: Binding affinity to human AT1 receptor at 10 uM relative to control
# Rattus norvegicus [33] = species on record: Rattus norvegicus; assay: Binding affinity to rat GABA-B receptor at 10 uM relative to control
# [34] = biological target: 5-hydroxytryptamine receptor 2A (Rattus norvegicus) (UniProt P14842); assay: Binding affinity to rat 5-HT2 receptor at 10 uM relative to control
# [35] = biological target: Adrenergic receptor alpha-2 (Rattus norvegicus) (UniProt P22086+P19328+P22909); assay: Binding affinity to rat adrenergic alpha2 receptor at 10 uM relative to control
# [36] = biological target: D(1A) dopamine receptor (Homo sapiens) (UniProt P21728); assay: Binding affinity to human dopamine D1 receptor at 10 uM relative to control
# Sequence of D(1A) dopamine receptor (Homo sapiens) (P21728 whole entry): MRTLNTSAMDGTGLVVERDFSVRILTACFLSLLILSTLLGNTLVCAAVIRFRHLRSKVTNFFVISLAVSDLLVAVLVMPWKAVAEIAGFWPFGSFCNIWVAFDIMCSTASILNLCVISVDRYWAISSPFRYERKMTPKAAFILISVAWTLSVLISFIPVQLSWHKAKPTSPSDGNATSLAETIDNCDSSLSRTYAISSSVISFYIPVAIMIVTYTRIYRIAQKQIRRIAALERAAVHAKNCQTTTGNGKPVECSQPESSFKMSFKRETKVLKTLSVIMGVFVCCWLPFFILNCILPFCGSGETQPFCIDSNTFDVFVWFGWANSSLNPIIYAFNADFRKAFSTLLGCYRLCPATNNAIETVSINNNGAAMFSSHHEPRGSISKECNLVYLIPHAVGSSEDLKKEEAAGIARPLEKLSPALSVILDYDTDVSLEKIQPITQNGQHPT
# Sequence of C-C chemokine receptor type 2 (P41597 whole entry): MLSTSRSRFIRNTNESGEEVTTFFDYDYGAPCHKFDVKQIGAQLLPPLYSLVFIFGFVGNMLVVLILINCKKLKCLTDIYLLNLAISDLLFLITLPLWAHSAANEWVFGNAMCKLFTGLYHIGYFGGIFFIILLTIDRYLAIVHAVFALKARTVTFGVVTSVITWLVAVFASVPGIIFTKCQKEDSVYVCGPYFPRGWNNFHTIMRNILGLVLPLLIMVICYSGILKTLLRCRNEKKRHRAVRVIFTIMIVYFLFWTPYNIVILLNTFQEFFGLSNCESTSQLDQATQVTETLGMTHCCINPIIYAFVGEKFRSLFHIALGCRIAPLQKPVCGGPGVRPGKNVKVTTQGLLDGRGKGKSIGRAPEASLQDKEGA
# Sequence of Histamine H4 receptor (Q9H3N8 whole entry): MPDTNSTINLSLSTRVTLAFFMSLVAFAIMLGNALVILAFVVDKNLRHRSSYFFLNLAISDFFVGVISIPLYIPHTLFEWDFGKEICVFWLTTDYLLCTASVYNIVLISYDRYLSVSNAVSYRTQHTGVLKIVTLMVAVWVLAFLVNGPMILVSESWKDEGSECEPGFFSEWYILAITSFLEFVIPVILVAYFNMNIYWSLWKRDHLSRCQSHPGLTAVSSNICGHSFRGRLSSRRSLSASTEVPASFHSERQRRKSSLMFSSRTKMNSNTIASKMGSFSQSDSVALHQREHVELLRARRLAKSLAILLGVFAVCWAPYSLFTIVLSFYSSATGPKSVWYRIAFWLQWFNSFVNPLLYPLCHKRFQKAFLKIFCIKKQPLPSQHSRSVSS
# Sequence of C-C chemokine receptor type 1 (P32246 whole entry): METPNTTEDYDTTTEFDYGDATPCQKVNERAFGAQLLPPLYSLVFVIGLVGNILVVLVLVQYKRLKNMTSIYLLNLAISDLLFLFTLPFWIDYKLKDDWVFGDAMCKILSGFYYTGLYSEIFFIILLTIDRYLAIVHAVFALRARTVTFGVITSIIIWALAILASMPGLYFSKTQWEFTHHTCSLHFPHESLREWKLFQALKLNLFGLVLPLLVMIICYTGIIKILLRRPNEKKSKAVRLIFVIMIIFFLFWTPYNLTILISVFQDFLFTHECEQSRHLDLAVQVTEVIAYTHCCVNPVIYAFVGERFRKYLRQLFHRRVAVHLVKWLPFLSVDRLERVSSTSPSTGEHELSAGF
# Sequence of C-X-C chemokine receptor type 2 (P25025 whole entry): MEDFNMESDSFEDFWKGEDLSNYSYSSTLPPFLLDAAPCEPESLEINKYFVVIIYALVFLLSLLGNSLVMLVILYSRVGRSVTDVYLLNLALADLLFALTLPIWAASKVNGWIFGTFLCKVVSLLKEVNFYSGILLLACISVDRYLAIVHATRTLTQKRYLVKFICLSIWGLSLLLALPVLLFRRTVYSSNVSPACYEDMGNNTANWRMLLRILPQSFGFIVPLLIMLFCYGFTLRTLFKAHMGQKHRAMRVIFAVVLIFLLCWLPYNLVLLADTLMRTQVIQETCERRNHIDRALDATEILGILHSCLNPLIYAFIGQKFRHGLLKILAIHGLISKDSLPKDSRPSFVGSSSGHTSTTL
# Sequence of C-C chemokine receptor type 5 (P51681 whole entry): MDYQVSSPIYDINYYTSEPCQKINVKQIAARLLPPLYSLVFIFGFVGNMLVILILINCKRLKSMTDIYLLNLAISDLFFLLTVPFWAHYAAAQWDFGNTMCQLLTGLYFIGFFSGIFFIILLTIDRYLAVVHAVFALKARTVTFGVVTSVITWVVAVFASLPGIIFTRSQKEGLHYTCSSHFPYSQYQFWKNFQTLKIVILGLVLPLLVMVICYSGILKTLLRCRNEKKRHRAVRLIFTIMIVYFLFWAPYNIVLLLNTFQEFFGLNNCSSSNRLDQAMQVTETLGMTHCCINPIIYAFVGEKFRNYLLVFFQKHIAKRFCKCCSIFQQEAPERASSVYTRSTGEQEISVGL
# Sequence of C-X-C chemokine receptor type 3 (P49682 whole entry): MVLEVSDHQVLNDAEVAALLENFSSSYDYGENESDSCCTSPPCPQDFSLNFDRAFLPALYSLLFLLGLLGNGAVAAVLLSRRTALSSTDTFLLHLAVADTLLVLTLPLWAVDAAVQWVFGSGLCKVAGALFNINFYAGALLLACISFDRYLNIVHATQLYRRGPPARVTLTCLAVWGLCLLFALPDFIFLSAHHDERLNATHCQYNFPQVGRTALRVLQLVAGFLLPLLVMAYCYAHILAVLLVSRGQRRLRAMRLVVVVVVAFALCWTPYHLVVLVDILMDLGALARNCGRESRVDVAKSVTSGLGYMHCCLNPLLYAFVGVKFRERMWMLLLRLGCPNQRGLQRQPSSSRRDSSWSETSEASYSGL
# Sequence of B2 bradykinin receptor (Homo sapiens) (P30411 whole entry): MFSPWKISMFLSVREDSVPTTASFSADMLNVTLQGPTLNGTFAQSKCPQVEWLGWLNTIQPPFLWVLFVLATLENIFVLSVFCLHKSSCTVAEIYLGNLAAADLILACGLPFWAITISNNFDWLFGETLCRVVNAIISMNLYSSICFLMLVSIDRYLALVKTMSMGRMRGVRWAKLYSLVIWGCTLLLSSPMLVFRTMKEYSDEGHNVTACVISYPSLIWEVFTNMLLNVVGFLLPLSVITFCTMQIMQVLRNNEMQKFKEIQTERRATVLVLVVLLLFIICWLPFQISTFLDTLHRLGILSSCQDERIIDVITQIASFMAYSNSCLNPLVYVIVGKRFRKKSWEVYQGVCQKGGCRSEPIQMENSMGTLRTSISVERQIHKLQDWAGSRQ
# Sequence of Histamine H1 receptor (Homo sapiens) (P35367 whole entry): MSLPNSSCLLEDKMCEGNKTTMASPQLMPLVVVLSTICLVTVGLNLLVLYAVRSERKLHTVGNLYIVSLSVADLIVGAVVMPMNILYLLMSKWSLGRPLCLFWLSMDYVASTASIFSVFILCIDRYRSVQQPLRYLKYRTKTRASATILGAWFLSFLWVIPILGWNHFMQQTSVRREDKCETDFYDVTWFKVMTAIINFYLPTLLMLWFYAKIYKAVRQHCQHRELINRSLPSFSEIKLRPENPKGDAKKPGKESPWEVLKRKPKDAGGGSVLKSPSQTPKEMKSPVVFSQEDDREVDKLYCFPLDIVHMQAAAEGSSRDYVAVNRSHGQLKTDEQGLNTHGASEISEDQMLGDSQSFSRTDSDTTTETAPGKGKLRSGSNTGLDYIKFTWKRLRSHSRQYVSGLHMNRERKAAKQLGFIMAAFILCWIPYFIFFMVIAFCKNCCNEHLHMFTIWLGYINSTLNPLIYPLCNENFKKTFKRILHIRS
# Sequence of D(3) dopamine receptor (Homo sapiens) (P35462 whole entry): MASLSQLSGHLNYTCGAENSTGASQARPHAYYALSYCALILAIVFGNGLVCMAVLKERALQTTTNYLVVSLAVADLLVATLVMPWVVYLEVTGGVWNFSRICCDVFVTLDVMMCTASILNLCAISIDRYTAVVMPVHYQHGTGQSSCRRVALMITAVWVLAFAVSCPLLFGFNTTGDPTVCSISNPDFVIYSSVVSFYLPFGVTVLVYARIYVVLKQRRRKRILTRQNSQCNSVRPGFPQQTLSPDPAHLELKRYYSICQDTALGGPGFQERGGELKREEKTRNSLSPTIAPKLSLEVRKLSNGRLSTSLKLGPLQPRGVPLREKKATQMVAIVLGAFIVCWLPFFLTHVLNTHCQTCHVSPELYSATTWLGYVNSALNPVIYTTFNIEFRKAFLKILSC
# Sequence of C-C chemokine receptor type 6 (P51684 whole entry): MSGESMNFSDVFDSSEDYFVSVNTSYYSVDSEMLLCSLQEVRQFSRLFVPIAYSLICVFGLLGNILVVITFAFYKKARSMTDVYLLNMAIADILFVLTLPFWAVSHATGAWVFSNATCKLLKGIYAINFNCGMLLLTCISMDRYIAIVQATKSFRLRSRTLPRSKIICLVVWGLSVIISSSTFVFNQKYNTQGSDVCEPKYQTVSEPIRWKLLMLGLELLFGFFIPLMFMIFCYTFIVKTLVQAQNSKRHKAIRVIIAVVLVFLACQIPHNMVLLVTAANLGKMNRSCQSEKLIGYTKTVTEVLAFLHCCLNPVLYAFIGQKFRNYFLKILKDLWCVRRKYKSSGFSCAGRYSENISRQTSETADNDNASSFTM
# Sequence of D(2) dopamine receptor (Homo sapiens) (P14416 whole entry): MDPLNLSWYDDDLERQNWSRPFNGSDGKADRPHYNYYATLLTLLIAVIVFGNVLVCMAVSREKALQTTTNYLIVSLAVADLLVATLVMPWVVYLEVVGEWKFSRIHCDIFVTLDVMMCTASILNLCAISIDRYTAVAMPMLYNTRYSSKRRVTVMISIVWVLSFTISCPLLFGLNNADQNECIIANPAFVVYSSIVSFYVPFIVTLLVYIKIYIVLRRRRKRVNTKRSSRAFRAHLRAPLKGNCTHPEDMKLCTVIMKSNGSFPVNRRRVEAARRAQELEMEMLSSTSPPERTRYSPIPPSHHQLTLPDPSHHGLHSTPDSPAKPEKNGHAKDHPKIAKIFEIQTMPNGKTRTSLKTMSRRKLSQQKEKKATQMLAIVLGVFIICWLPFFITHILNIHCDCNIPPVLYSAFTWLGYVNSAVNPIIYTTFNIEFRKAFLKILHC
compound,measurement,setting,value
CC1CCN(C(=O)C(CCn2cccc2C#N)NS(=O)(=O)c2cccc3[nH]ccc23)CC1 (racemic),IC50,[1],> 10000 nM
same,IC50,[2],> 10000 nM
same,IC50,[3],0.398 nM
same,IC50,[4],> 10000 nM
same,half-life,[5],< 3 min
same,IC50,[6],> 10000 nM
same,IC50,[7],> 10000 nM
same,IC50,[8],1 nM
same,IC50,[9],10 nM
same,IC50,[10],63.1 nM
same,IC50,[11],25.1 nM
same,IC50,Histamine H4 receptor,> 10000 nM
same,hepatic extraction ratio,[12],> 0.88
same,IC50,[13],2 nM
same,IC50,[14],1.26 nM
CC1CCN(C(=O)C(CCn2cccc2C#N)NS(=O)(=O)c2cc(Cl)c(N)c(Cl)c2)CC1 (stereo not given),IC50,[1],> 10000 nM
same,IC50,[2],> 10000 nM
same,Activity,[15],11%
same,Activity,Homo sapiens [16],< 10%
same,Activity,Rattus norvegicus [17],11%
same,IC50,[18],> 10000 nM
same,Activity,[19],< 10%
same,IC50,[20],3.4 nM
same,Activity,[21],< 10%
same,Activity,Rattus norvegicus [22],11%
same,IC50,[3],2 nM
same,Activity,[23],< 10%
same,Activity,[24],12%
same,Activity,[25],< 10%
same,IC50,[4],> 10000 nM
same,IC50,[26],3.4 nM
same,Activity,[27],28%
same,Activity,[28],< 10%
same,Activity,[29],12%
same,IC50,[6],> 10000 nM
same,IC50,[7],> 10000 nM
same,IC50,[8],12.6 nM
same,Activity,[30],< 10%
same,Activity,Homo sapiens [31],< 10%
same,IC50,[9],20 nM
same,IC50,[10],1580 nM
same,Activity,[32],< 10%
same,Activity,Rattus norvegicus [33],10%
same,IC50,[11],158 nM
same,IC50,Histamine H4 receptor,> 10000 nM
same,Activity,[34],< 10%
same,Activity,[35],< 10%
same,IC50,[13],20 nM
same,IC50,[14],12.6 nM
same,Activity,[36],< 10%
